Data as given in ChEMBL document CHEMBL1134806, “Parallel solid-phase synthesis of nucleoside phosphoramidate libraries” (Bioorg Med Chem Lett, 2001).

Experiments:
[1] = tested on: Hepatitis B virus; assay: Cytotoxic activity was determined against Hepatitis B virus (HBV) at 10 uM using HepG2-derived 2.2.15 cell lines; assay type: functional; conditions: HepG2 2.2.15
[2] = tested on: Hepatitis B virus; assay: Inhibitory activity was determined against Hepatitis B virus (HBV) at 10 uM using HepG2-derived 2.2.15 cell lines; assay type: functional, organism-based

Structure (SMILES)	CC50 [1] [µM]	IC50 [2] [µM]
COc1ccc(CCNP(=O)(O)OC[C@H]2O[C@@H](n3ccc(=O)[nH]c3=O)[C@H](OC)[C@@H]2OP(=O)(O)OC[C@H]2O[C@@H](n3cnc4c(N)ncnc43)C[C@@H]2O)cc1OC	> 300	4.4
Nc1nc(O)c2ncn([C@H]3C[C@H](O)[C@@H](COP(=O)(O)O[C@@H]4C[C@@H](n5cnc6c(N)ncnc65)O[C@H]4COP(=O)(O)NC4CCCN4)O3)c2n1 (some centres undefined)	> 300	2.1
